Measurements published in PubChem BioAssay AID1963870 (Molecular Pharmacology Branch, DTP, NCI, 2024).

Tested on: 292921-168-R-J2-PDC KRAS tumor spheroid viability
Test: Anticancer human tumor 292921-168-R-J2-PDC patient-derived pancreatic carcinoma cell line growth inhibition [KRAS2]
Settings: spheroids with HUVEC and MSC; for IC50: curve of first compound; for viability, T/C: stronger effect = lower value
Procedure, shortened: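 Combination screen of spheroid viability in tumor-cell co-cultures with endothelial (HUVEC) and mesenchymal stem cell stroma. Each agent was tested in half-log dilutions, topping at clinical Cmax or at 10 microM without a known Cmax.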

[1] = second compound 0.0316 µM, first compound 0.0316 µM
[2] = second compound 0.0316 µM, first compound 0.1 µM
[3] = second compound 0.0316 µM, first compound 0.316 µM
[4] = second compound 0.0316 µM, first compound 1 µM
[5] = second compound 0.0316 µM, first compound 3.16 µM
[6] = second compound 0.0316 µM, first compound 10 µM
[7] = second compound 0.1 µM, first compound 0.0316 µM
[8] = second compound 0.1 µM, first compound 0.1 µM
[9] = second compound 0.1 µM, first compound 0.316 µM
[10] = second compound 0.1 µM, first compound 1 µM
[11] = second compound 0.1 µM, first compound 3.16 µM
[12] = second compound 0.1 µM, first compound 10 µM
[13] = second compound 0.316 µM, first compound 0.0316 µM
[14] = second compound 0.316 µM, first compound 0.1 µM
[15] = second compound 0.316 µM, first compound 0.316 µM
[16] = second compound 0.316 µM, first compound 1 µM
[17] = second compound 0.316 µM, first compound 3.16 µM
[18] = second compound 0.316 µM, first compound 10 µM
[19] = second compound 1 µM, first compound 0.0316 µM
[20] = second compound 1 µM, first compound 0.1 µM
[21] = second compound 1 µM, first compound 0.316 µM
[22] = second compound 1 µM, first compound 1 µM
[23] = second compound 1 µM, first compound 3.16 µM
[24] = second compound 1 µM, first compound 10 µM
[25] = second compound 3.16 µM, first compound 0.0316 µM
[26] = second compound 3.16 µM, first compound 0.1 µM
[27] = second compound 3.16 µM, first compound 0.316 µM
[28] = second compound 3.16 µM, first compound 1 µM
[29] = second compound 3.16 µM, first compound 3.16 µM
[30] = second compound 3.16 µM, first compound 10 µM
[31] = second compound 10 µM, first compound 0.0316 µM
[32] = second compound 10 µM, first compound 0.1 µM
[33] = second compound 10 µM, first compound 0.316 µM
[34] = second compound 10 µM, first compound 1 µM
[35] = second compound 10 µM, first compound 3.16 µM
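Further: drug exposure lasted seven days after spheroids formed for three days.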
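Wherever viability, T/C is given: percent of DMSO vehicle control viability which is 100%.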

Compound	IC50 (second compound 0.1 µM)	IC50 (second compound 0.316 µM)	IC50 (second compound 1 µM)	IC50 (second compound 3.16 µM)	viability, T/C [7]	viability, T/C [8]	viability, T/C [9]	viability, T/C [10]	viability, T/C [11]	viability, T/C [13]	viability, T/C [14]	viability, T/C [15]	viability, T/C [16]	viability, T/C [17]	viability, T/C [19]	viability, T/C [20]	viability, T/C [21]	viability, T/C [22]	viability, T/C [23]	viability, T/C [25]	also measured
COC(=O)c1ccc2c(C(=Nc3ccc(N(C)C(=O)CN4CCN(C)CC4)cc3)c3ccccc3)c(O)[nH]c2c1 + C=CC(=O)N1CCN(c2nc(OCC3CCCN3C)nc3c2CCN(c2cccc4cccc(C)c24)C3)CC1CC#N	< 31.6 nM	< 31.6 nM	< 31.6 nM	< 31.6 nM	26.5%	22.9%	15.5%	9.38%	5.32%	23.6%	19.6%	13.4%	7.92%	2.44%	16.7%	16.4%	9.48%	6.16%	0.43%	0.16%	IC50 (second compound 0.0316 µM): < 31.6 nM; viability, T/C [1]: 33%; viability, T/C [2]: 26.1%; viability, T/C [3]: 16.8%; viability, T/C [4]: 10.2%; viability, T/C [5]: 3.16%; viability, T/C [6]: 0.05%; viability, T/C [12]: 0.11%; viability, T/C [18]: 0.07%; viability, T/C [24]: 0.03%; viability, T/C [26]: 0.08%; viability, T/C [27]: 0.07%; viability, T/C [28]: 0.05%; viability, T/C [29]: 0.04%; viability, T/C [30]: 0.05%
CC(=O)OC12COC1CC(O)C1(C)C(=O)C(O)C3=C(C)C(OC(=O)C(O)C(NC(=O)OC(C)(C)C)c4ccccc4)CC(O)(C(OC(=O)c4ccccc4)C21)C3(C)C (stereo not given) + CNCc1ccccc1-c1csc(C(C)Nc2nc(C)nc3cc(OC)c(OC)cc23)c1	< 10 nM	< 10 nM	< 10 nM	< 10 nM	15.9%	13.8%	14.6%	17.2%	18.1%	14.4%	13%	13%	15.7%	17.5%	15%	11.5%	12.3%	17.4%	22.8%	16.1%	IC50 (second compound 10 µM): < 10 nM; viability, T/C (second compound 0.1 µM, first compound 0.01 µM): 13.9%; viability, T/C (second compound 0.316 µM, first compound 0.01 µM): 15.8%; viability, T/C (second compound 1 µM, first compound 0.01 µM): 16.5%; viability, T/C (second compound 3.16 µM, first compound 0.01 µM): 0.1%; viability, T/C [26]: 0.07%; viability, T/C [27]: 0.03%; viability, T/C [28]: 0.08%; viability, T/C [29]: 19.4%; viability, T/C (second compound 10 µM, first compound 0.01 µM): 0.14%; viability, T/C [31]: 0.09%; viability, T/C [32]: 0.06%; viability, T/C [33]: 0.04%; viability, T/C [34]: 0.08%; viability, T/C [35]: 0.17%
COc1cc(Nc2ncc3c(n2)-c2ccc(Cl)cc2C(c2c(F)cccc2OC)=NC3)ccc1C(=O)O + C=CC(=O)N1CCN(c2nc(OCC3CCCN3C)nc3c2CCN(c2cccc4cccc(C)c24)C3)CC1CC#N	< 31.6 nM	< 31.6 nM	< 31.6 nM	< 31.6 nM	24.8%	25.7%	26.8%	27.2%	23.5%	18.8%	17.9%	23.5%	23.3%	21.1%	11.2%	10.8%	14.9%	15.4%	14.2%	0.22%	IC50 (second compound 0.0316 µM): < 31.6 nM; viability, T/C [1]: 28.8%; viability, T/C [2]: 25.6%; viability, T/C [3]: 28.7%; viability, T/C [4]: 29.4%; viability, T/C [5]: 26.1%; viability, T/C [6]: 17.1%; viability, T/C [12]: 15.9%; viability, T/C [18]: 14.4%; viability, T/C [24]: 10.3%; viability, T/C [26]: 0.2%; viability, T/C [27]: 0.13%; viability, T/C [28]: 1.99%; viability, T/C [29]: 0.44%; viability, T/C [30]: 0.41%
COc1cc2nccc(Oc3ccc(NC(=O)C4(C(=O)Nc5ccc(F)cc5)CC4)cc3)c2cc1OC + COc1cc2nc(C)nc(NC(C)c3cc(N)cc(C(F)(F)F)c3)c2cc1OC1CCOC1	2310 nM	2440 nM	1590 nM	996 nM	102%	110%	101%	77.8%	40%	99.4%	99.4%	92%	75%	42.5%	102%	86.9%	88.6%	60.4%	33.2%	73.6%	IC50 (second compound 10 µM): < 31.6 nM; viability, T/C [12]: 21.1%; viability, T/C [18]: 23.7%; viability, T/C [24]: 17.6%; viability, T/C [26]: 72.9%; viability, T/C [27]: 64.6%; viability, T/C [28]: 51.8%; viability, T/C [29]: 22.2%; viability, T/C [30]: 11.8%; viability, T/C [31]: 45.1%; viability, T/C [32]: 31.1%; viability, T/C [33]: 36.6%; viability, T/C [34]: 31.9%; viability, T/C [35]: 15.8%; viability, T/C (second compound 10 µM, first compound 10 µM): 0.83%
